Reference: US20090087431A1, “METHODS OF TREATING BONE DISORDERS WITH MODULATORS OF AXL” (Wyeth, priority 2007, published 2009)

Key:
Clone 14 cells = test: Osteocalcin mRNA after siRNA transfection, osteoblast differentiation; format: cell-based, murine; settings: all tested conditions (with and without BMP2), p<0.05
Experimental: The role of Axl in osteoblast differentiation from an osteoprogenitor cell was investigated using RNA interference in the murine Clone 14 cell line. In these experiments, siRNA reagents against murine Axl were transfected into cells treated with either 0 ng/ml or 100 ng/ml BMP2. The induction of osteocalcin gene expression, an established osteoblast marker, was measured to assess osteoblast differentiation 4 days after the onset of treatment and transfection.
Clone 14 cells were seeded at 20,000 cells/well in a 96-well plate and cultured in DMEM media supplemented with 10% fetal bovine serum (FBS) and 1% L-glutamine. The following day, cells were transfected for 4 hours with siRNA at a final concentration of 20 nM using 0.5% (final) Lipofectamine2000 (Invitrogen, Carlsbad, Calif.). Cells were then cultured in DMEM supplemented with 1% FBS and 1% penicillin/streptomycin. […]
To assess the consequence of Axl knockdown on osteoblast differentiation, osteocalcin mRNA levels were monitored. […]
An additional negative control was the same non-specific, scrambled siRNA described above (NSP). Osteocalcin mRNA levels were monitored by real-time RT-PCR as above using the primers set forth in SEQ ID NO:9, SEQ ID NO:10, and SEQ ID NO:11 and shown below:
Osteocalcin mRNA levels are shown relative to those monitored in cells transfected with a scrambled, non-specific siRNA (NSP). […]

MC3T3-E1 cells = test: Formation of mineralized nodules, Alizarin red staining; format: cell-based, murine; settings: 20 nM siRNA, Day 17 post-transfection, vs scrambled siRNA or mock
Experimental: MC3T3-E1 cells were seeded at a density of 50,000 cells/well of a 6-well plate and cultured in Alpha media supplemented with 1% glutamine and 10% FBS. The following day the cells were transfected with 20 nM (final concentration) siRNA using 0.4% (final) Oligofectamine (Invitrogen) for 4 hours. The siRNAs used in this study include the pool of Axl siRNAs and the Cbfa1/Runx2 siRNA described above. In addition two control treatments were included: a mock transfection where no siRNA was introduced and a non-specific, scrambled siRNA (as described).
Following transfection, the cells were maintained in Alpha media supplemented with 1% glutamine, 10% FBS and 10 mM β-glycerophosphate, a cofactor necessary for mineralization, with no other osteogenic agents. […]
To determine mineralization, cells were washed in PBS, fixed in cold ethanol and stained with Alizarin red using standard protocols. Semi-quantification of the extent of mineralization was conducted by de-staining the cells in 10% Cetylpyridinium chloride in 10 mM sodium phosphate for 15 minutes at room temperature. Supernatants were removed and absorbance at 570 nm measured. Concentrations were determined by obtaining absorbance measurements of a standard curve of known dilutions of Alizarin red (range from 50-400 uM). Mineralization was visually assessed by the presence of red-stained nodules.

Substance: Runx2/Cbfa1: siRNA against Runx2/Cbfa1, 5′-CGUGAAUGGUCAUAAUAACU-3′; negative control (listed as RNA, chemistry not given here)
- osteoblast differentiation as monitored by osteocalcin mRNA expression (Clone 14 cells): dramatically repressed
- extent of mineralization (visual, Alizarin red) (MC3T3-E1 cells): dramatic reduction
